Bridge positions count the residues as written; N and C are the ends. Square brackets hold non-standard residues; d marks the D form. Peptide text beside a SMILES is read from it. * marks the point of attachment. Ileψ(thiazoline)Cys = CC[C@H](C)[C@H](N)C1=N[C@H](C(=O)*)CS1; dOrn = NCCC[C@@H](N)C(=O)O
Columns and labels:
[1] = test system: HSV-2 (strain HG-52); assay: Inhibition of HSV-2 replication in serum-starved BHK 21/C13 cells (cell culture technique, virus titration); type: cell-based; details: for PFU per cell for control/PFU per cell for agent: 30 hours post infection; for PFU PER CELL: infected BHK 21/C13 cells harvested 30 hours post infection, control 67.00
Method: This method in a modified form is exemplified hereinafter.
(a) Preparation of serum-starved cells: A medium composed of alpha medium (Gibco Canada Inc, Burlington, Ontario, Canada) and fetal calf serum (Gibco Canada Inc.), in a 9:1 volume ratio, was placed in tissue culture dishes (35 mm, A/S Nunc, Kamstrup, Denmark). The medium in each dish was seeded with BHK 21/C13 cells (1.5 ×10^6 for each dish). (BHK 21/C13 cells have been described by Y. Langelier and G. Buttin, J. Gen. Virol., 57, 21 (1981)). After 6 hours, the medium was replaced with a new medium composed of alpha medium and fetal calf serum (99.5:0.5 v/v). The resultant preparation was incubated at 37° C. for 4 days.
(b) Cell infection in BBMT medium* without serum: The incubation medium was removed from the cells. The cells were washed twice with alpha medium (without the serum) and once with the BBMT medium. The cells were then incubated at 37° C. in BBMT medium for two hours. A series of viral solutions were prepared from a stock of HSV-2 (strain HG-52, described by Langelier and Buttin, supra) and the appropriate choice and amounts of the agents to be tested, diluted with BBMT to give viral solutions having a multiplicity of infection of 0.02 plaque forming units (PFU) per cell. A control viral solution (without any agent) also was prepared. Each viral solution (250 μl) was added to duplicate dishes containing the previously prepared cells in BBMT medium. After one hour of incubation at 37° C. for virus absorption, the medium in each dish was removed by aspiration. The cells were washed twice with BBMT medium. Fresh BBMT medium (800 μl), with or without (control) the appropriate concentration of the test agent, was added to the dishes which were further incubated at 37° C. Every six hours, a concentrated solution of bacitracin in BBMT was added to the appropriate dishes to maintain the initial concentration of that agent.
*BBMT medium is described by P. Brazeau et al., Proc. Natl. Acad. Sci. USA, 79, 7909 (1982).
(c) Harvesting: At 30 hours post-infection, cells were detached with a rubber policeman and frozen at -80° C. until titration.
(d) Titration: Virus titration were performed according to the method of B. B. Wentworth and L. French, Proc. Soc. Exp. Biol. Med., 131, 588 (1969).
The following table is illustrative of the results obtained when acyclovir, bacitracin and combinations thereof were tested for activity according to the preceding method. Results are expressed in PFU per cell for infected cells harvested at 30 hours post infection. The lower the PFU per cell value, the greater the inhibitory effect on viral replication of the tested agent.

[2] = test system: herpes simplex virus type 1 (HSV-1); details: bacitracin used alone; reported by Alarcon et al.; cited from earlier work

| SMILES | PFU per cell for control/PFU per cell for agent ([1]; Acyclovir 0.50 μM) | PFU PER CELL ([1]; Acyclovir 0.50 μM) [PFU per cell] | PFU per cell for control/PFU per cell for agent ([1]; Acyclovir 2.00 μM) | PFU PER CELL ([1]; Acyclovir 2.00 μM) [PFU per cell] | PFU per cell for control/PFU per cell for agent ([1]; Bacitracin 0.25 mM) | PFU PER CELL ([1]; Bacitracin 0.25 mM) [PFU per cell] | PFU per cell for control/PFU per cell for agent ([1]; Bacitracin 0.50 mM) | PFU PER CELL ([1]; Bacitracin 0.50 mM) [PFU per cell] | PFU per cell for control/PFU per cell for agent ([1]; Bacitracin 0.75 mM) | PFU PER CELL ([1]; Bacitracin 0.75 mM) [PFU per cell] | PFU per cell for control/PFU per cell for agent ([1]; Bacitracin 1.00 mM) | PFU PER CELL ([1]; Bacitracin 1.00 mM) [PFU per cell] | activity against herpes simplex virus type 1 (HSV-1) [2] |
| --- | --- | --- | --- | --- | --- | --- | --- | --- | --- | --- | --- | --- | --- |
| Nc1nc2c(ncn2COCCO)c(=O)[nH]1 [Acyclovir, 9-((2-hydroxyethoxy)methyl)guanine] | 3.96 | 16.9 | 13.67 | 4.9 |  |  |  |  |  |  |  |  |  |
| CC[C@H](C)[C@H](N)C1=N[C@H](C(=O)N[C@@H](CC(C)C)C(=O)N[C@H](CCC(=O)O)C(=O)N[C@H](C(=O)N[C@H]2CCCCNC(=O)[C@H](CC(N)=O)NC(=O)[C@@H](CC(=O)O)NC(=O)[C@H](Cc3cnc[nH]3)NC(=O)[C@@H](Cc3ccccc3)NC(=O)[C@H]([C@@H](C)CC)NC(=O)[C@@H](CCCN)NC2=O)[C@@H](C)CC)CS1 [Bacitracin] ({Ileψ(thiazoline)Cys}-L[dE]IK[dOrn]I[dF]H[dD]N; lactam 4-C) |  |  |  |  | 62.0 | 1.08 | 515.0 | 0.13 | 4786.0 | 0.014 | 8375.0 | 0.008 | inactive |

Reference: US5002932A, “Antiviral pharmaceutical compositions and method of treating herpes” (priority 1987, dated 1991)
